Experiments:
Assay in all cases: Kinase profiling in a biochemical assay panel (mobility shift assays and ELISA), %-inhibition at 1 μM; selectivity entropy
[1] = biological target: T1, panel of more than 300 wild-type and mutant kinases (313 kinase panel) (Homo sapiens, UniProt P46734)
T1 sequence (P46734 1-347): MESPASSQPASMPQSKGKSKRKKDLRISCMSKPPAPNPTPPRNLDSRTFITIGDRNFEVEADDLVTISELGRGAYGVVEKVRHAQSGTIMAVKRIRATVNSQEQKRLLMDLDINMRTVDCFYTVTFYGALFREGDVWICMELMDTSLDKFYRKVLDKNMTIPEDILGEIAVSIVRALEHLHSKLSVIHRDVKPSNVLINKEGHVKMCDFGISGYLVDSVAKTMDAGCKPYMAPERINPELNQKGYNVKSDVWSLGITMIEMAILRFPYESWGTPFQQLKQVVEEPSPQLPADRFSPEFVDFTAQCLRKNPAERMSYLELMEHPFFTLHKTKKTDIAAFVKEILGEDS

[2] = biological target: panel of more than 300 wild-type and mutant kinases (313 kinase panel) (Homo sapiens, UniProt P41240)
Chain of panel of more than 300 wild-type and mutant kinases (313 kinase panel) (Homo sapiens, UniProt P41240) (P41240 whole entry, change not shown): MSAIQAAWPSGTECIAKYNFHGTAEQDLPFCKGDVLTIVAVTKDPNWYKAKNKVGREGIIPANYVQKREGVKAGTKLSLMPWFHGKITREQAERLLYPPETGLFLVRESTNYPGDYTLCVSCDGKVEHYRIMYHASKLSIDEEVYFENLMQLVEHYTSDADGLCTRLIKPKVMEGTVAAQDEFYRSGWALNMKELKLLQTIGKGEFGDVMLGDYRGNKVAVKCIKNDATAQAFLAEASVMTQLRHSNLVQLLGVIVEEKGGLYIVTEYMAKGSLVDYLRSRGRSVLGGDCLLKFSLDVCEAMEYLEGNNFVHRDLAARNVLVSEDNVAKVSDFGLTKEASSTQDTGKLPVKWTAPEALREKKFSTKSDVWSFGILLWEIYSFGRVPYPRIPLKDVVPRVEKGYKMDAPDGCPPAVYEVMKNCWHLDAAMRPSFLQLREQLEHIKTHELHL

[3] = biological target: T2, panel of more than 300 wild-type and mutant kinases (313 kinase panel) (Homo sapiens, UniProt P21709)
T2 sequence (P21709 26-976): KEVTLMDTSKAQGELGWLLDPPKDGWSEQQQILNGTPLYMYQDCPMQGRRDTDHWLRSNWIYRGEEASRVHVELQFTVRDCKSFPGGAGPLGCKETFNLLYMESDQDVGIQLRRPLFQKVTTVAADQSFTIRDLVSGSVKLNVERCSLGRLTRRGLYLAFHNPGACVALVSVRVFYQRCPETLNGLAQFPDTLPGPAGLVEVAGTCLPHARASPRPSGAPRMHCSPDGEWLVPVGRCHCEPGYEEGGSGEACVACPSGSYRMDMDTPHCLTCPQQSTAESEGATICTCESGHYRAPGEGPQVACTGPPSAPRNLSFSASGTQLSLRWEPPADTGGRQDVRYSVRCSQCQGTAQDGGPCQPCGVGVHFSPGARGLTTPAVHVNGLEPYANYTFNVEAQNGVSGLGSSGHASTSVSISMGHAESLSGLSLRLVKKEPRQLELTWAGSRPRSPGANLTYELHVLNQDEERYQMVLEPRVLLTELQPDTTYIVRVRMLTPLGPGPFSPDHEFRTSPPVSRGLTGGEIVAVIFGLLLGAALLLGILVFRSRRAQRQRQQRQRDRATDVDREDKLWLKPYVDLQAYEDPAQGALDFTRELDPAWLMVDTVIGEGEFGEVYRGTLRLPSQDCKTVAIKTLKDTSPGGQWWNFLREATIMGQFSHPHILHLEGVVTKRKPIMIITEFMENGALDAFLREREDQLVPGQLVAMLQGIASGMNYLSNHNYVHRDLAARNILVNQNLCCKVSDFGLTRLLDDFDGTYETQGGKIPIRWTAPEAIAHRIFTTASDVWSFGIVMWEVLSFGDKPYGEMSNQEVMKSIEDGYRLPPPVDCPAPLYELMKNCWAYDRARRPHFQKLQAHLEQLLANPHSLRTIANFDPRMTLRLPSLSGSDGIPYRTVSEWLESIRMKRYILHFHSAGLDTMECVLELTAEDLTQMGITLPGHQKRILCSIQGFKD

[4] = biological target: panel of more than 300 wild-type and mutant kinases (313 kinase panel) (Homo sapiens, UniProt Q13555)
[5] = biological target: T3, panel of more than 300 wild-type and mutant kinases (313 kinase panel) (Homo sapiens, UniProt O15530)
T3 sequence (O15530 1-556): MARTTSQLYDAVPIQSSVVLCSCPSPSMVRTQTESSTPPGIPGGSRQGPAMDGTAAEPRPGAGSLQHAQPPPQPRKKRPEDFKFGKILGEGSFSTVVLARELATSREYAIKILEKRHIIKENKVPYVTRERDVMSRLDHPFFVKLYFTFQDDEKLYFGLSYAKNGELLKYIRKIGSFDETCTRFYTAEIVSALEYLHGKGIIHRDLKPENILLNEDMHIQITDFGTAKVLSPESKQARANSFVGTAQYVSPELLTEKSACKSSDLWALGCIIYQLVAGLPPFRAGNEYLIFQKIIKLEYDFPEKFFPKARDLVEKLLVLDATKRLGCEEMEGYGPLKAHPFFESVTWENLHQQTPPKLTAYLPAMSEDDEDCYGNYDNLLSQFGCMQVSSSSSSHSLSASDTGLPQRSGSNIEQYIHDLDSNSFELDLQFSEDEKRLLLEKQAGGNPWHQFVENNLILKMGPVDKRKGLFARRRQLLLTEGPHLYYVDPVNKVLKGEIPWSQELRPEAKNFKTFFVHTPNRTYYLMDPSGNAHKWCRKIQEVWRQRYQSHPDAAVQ

[6] = biological target: panel of more than 300 wild-type and mutant kinases (313 kinase panel) (Homo sapiens, UniProt Q9UM73)
[7] = biological target: panel of more than 300 wild-type and mutant kinases (313 kinase panel) (Homo sapiens, UniProt P07949)
Chain of panel of more than 300 wild-type and mutant kinases (313 kinase panel) (Homo sapiens, UniProt P07949) (P07949 29-1114, change not shown): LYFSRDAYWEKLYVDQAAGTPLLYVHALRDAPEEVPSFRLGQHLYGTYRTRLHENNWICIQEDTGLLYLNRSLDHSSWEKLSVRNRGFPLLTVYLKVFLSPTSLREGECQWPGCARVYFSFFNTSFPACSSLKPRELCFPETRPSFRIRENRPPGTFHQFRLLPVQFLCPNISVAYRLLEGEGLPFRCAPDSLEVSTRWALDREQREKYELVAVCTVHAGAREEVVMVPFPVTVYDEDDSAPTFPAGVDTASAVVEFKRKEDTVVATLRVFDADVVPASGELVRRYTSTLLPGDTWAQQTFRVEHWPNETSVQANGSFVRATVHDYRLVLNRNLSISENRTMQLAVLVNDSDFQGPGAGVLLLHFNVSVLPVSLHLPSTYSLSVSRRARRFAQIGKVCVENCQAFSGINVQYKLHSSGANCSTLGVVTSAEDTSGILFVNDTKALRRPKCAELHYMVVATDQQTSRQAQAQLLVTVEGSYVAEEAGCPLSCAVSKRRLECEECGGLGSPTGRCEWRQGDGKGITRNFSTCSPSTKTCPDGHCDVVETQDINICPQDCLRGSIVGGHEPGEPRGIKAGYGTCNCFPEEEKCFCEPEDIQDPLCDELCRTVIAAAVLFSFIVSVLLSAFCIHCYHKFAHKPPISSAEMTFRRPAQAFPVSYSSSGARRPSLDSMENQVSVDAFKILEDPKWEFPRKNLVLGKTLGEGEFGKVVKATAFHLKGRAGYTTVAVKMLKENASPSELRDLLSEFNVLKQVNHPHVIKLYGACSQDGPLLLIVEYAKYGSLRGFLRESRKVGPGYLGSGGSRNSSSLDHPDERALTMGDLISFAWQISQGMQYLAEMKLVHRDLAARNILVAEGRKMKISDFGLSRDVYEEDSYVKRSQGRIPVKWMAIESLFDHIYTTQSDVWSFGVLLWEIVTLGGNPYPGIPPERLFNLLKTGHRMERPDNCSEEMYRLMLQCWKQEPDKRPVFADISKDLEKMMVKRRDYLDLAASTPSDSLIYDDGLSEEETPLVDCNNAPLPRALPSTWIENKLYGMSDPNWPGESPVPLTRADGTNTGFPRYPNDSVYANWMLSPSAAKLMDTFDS

[8] = biological target: panel of more than 300 wild-type and mutant kinases (313 kinase panel) (Homo sapiens, UniProt Q8IY84)
[9] = kinase MAP2K3, compound at 1 μM

Row | Structure (SMILES) | %-inhibition of MAP2K3 ([1]; 1 µM) [%] | %-inhibition of CSK ([2]; kinase CSK, compound at 1 μM) [%] | %-inhibition of EPHA1 ([3]; kinase EPHA1, compound at 1 μM) [%] | %-inhibition, CaMK2γ ([4]; 1 µM) [%] | %-inhibition of PDK1 ([5]; kinase PDK1, 1 μM) [%] | %-inhibition, ALK ([6]; kinase ALK, 1 μM compound) [%] | %-inhibition of RET ([7]; kinase RET, 1 μM) [%] | %-inhibition of MGC42105 ([8]; kinase MGC42105, 1 μM) [%] | %-inhibition of MAP2K3 [1, 9] [%] | %-inhibition, CaMK2γ ([4]; kinase CaMK2γ, 1 μM compound) [%] | %-inhibition of EPHA1 ([3]; 1 µM) [%] | %-inhibition of PDK1 ([5]; 1 µM) [%] | %-inhibition, ALK ([6]; 1 µM) [%] | %-inhibition of RET ([7]; 1 µM) [%] | %-inhibition of MGC42105 ([8]; 1 µM) [%] | %-inhibition of CSK ([2]; 1 µM) [%]
1 | COc1cc(Nc2c(C#N)cnc3cc(OCCCN4CCN(C)CC4)c(OC)cc23)c(Cl)cc1Cl [bosutinib] | 34 | 84 | 3 | 8 | -4.64 | 71 | 95 | 32 |  |  |  |  |  |  |  | 
2 | COc1cc2nccc(Oc3ccc(NC(=O)C4(C(=O)Nc5ccc(F)cc5)CC4)cc3)c2cc1OC [cabozantinib] |  | 60 | 84 |  | -7 | 49 |  | -8 | 72 | -8 |  |  |  |  |  | 
3 | C[C@@H](Oc1cc(-c2cnn(C3CCNCC3)c2)cnc1N)c1c(Cl)ccc(F)c1Cl [crizotinib] |  | 9 | 97 |  | -5 |  |  | -6 | 12 | -10 |  |  |  |  |  | 
4 | CC(C)(C)c1nc(-c2cccc(NS(=O)(=O)c3c(F)cccc3F)c2F)c(-c2ccnc(N)n2)s1 [dabrafenib] |  | 98 | 44 |  | -5.38 |  | 49 | -8.54 | 11 | -5.47 |  |  |  |  |  | 
5 | Cc1nc(Nc2ncc(C(=O)Nc3c(C)cccc3Cl)s2)cc(N2CCN(CCO)CC2)n1 [dasatinib] |  |  | 101 |  |  |  |  | -0.563 | 35 | -3.57 |  |  |  |  |  | 
6 | C#Cc1cccc(Nc2ncnc3cc(OCCOC)c(OCCOC)cc23)c1 [erlotinib] | 10 |  |  | 3 |  |  |  |  |  |  | 28 | 3 | 35 | 70 | 4 | 
7 | CO[C@H]1C[C@@H]2CC[C@@H](C)[C@@](O)(O2)C(=O)C(=O)N2CCCC[C@H]2C(=O)O[C@H]([C@H](C)C[C@@H]2CC[C@@H](OCCO)[C@H](OC)C2)CC(=O)[C@H](C)/C=C(\C)[C@@H](O)[C@@H](OC)C(=O)[C@H](C)C[C@H](C)/C=C/C=C/C=C/1C [everolimus] |  | -7 | -10 |  | -9 | 1.68 | -4 | -4 | 10 | -16 |  |  |  |  |  | 
8 | O=S(=O)(c1cccc2cnccc12)N1CCCNCC1 [fasudil] |  | -3.28 | 0.43 |  | -2.83 | -4.38 | -5 | 3.31 | -4 | -3.38 |  |  |  |  |  | 
9 | CS(=O)(=O)CCNCc1ccc(-c2ccc3ncnc(Nc4ccc(OCc5cccc(F)c5)c(Cl)c4)c3c2)o1 [lapatinib] |  |  | 6 | 1.73 |  | 1.72 |  |  | 13 |  |  | -2.71 |  | -0.304 |  | 1.88
10 | Cc1cn(-c2cc(NC(=O)c3ccc(C)c(Nc4nccc(-c5cccnc5)n4)c3)cc(C(F)(F)F)c2)cn1 [nilotinib] |  |  | 61 |  | -4.33 | -8 |  |  | 94 | -2.76 |  |  |  | 31 | -48 | 78
11 | Cc1ccc(Nc2nccc(N(C)c3ccc4c(C)n(C)nc4c3)n2)cc1S(N)(=O)=O [pazopanib] |  | 12 | 54 |  | -0.284 | 48 |  | 0.318 | 47 | 0.188 |  |  |  |  |  | 
12 | Cc1ccc(C(=O)Nc2ccc(CN3CCN(C)CC3)c(C(F)(F)F)c2)cc1C#Cc1cnc2cccnn12 [ponatinib] |  |  | 97 |  | -5 | 9 | 102 | -5.68 |  |  |  |  |  |  |  | 
13 | CNC(=O)c1cc(Oc2ccc(NC(=O)Nc3ccc(Cl)c(C(F)(F)F)c3)c(F)c2)ccn1 [regorafenib] |  | 28 | 55 |  | -3 | -3.43 |  | -22 | 90 | -13 |  |  |  | 102 |  | 
14 | N#CC[C@H](C1CCCC1)n1cc(-c2ncnc3[nH]ccc23)cn1 [ruxolitinib] |  | -0.827 | 43 |  | -3.16 |  |  | -13 | 27 | 56 |  |  | 69 |  |  | 
15 | COc1cc2c(Nc3ccc(Br)cc3F)ncnc2cc1OCC1CCN(C)CC1 [vandetanib] |  | 68 | 99 |  | -4.37 |  |  | -17 | 16 | -13 |  |  |  |  |  | 
